Reference: US20150359794A1, “IMPAIRMENT OF THE LARGE RIBOSOMAL SUBUNIT PROTEIN RPL24 BY DEPLETION OR ACETYLATION” (Buck Institute for Research on Aging, priority 2014, published 2015)

Experiments:
Format in all cases: cell-based, human
tubulin = test: Western blot for tubulin acetylation in SKBR3 cells; conditions: western blot (FIG. 4c,d)
Excerpt: (§1) Like TSA, the HDAC6 (class IIb)-selective inhibitors, Tubacin and Compound 101, as well as HDAC6 siRNA, all induce tubulin acetylation as expected as well as ribosomal protein acetylation, including the band that co-migrates with RPL24 (FIG. 4c,d, indicated by arrows). […] Thus, the tubulin acetylating effects of pan-histone deacetylase inhibition, known to be mediated by inhibition or knockdown of HDAC6, correspond to the observed ribosome and RPL24 acetylation responses induced by TSA.
(§2) Cells are lysed in RIPA buffer (10 mM Tris-HCL (pH 8.0), 1 mM EDTA, 0.5 mM EGTA, 1% triton X-100, 0.1% sodium deoxycholate, 0.1% SDS, 140 mM NaCl, 20 mM NaF, Complete EDTA-free protease inhibitor tablets (Roche Diagnostics Corp., Basel, Switzerland) and the phosphatase inhibitor cocktail PhosSTOP (Roche)), the latter two as indicated by the manufacturer's protocol. Equal amounts of protein are diluted in 2× sample buffer. Immunoblots on PVDF (Polyvinyldene Fluoride) membranes are blocked with nonfat milk in tris-buffered saline with 0.05% tween-20 (TBST). The following antibodies are incubated with membranes in 5% nonfat milk in TBST: RPL24 (Proteintech, Chicago, Ill.), Cyclin D1, Rack1, RPL4 (Santa Cruz Biotechnology, Santa Cruz, Calif.), NBS1, GAPDH (EMD Millipore Corporation, Chicago, Ill.), Survivin, β-tubulin, acetyl-lysine, eIF6, acetyl-H2B, H2B, (Cell Signaling Technology, Boston, Mass.), acetyl-tubulin, tubulin (Sigma Aldrich (St. Louis, Mo.))
FIG. 4: Ribosomal protein acetylation is induced by histone deacetylase inhibition. (a-c) SKBR3 cells were treated with the indicated drugs for the indicated period of time. (d) SKBR3 cells were transfected with the indicated siRNAs and allowed to incubate for 72 hours. (a, c, d). The indicated western blots were performed in ribopellets, total cytoplasmic lysates, or nuclear extracts. (b) Mass spectrometry was performed on ribopellets as described in materials and methods and in FIG. 6. The fold change in acetylated peptide to total peptide case by TSA treatment is plotted. Only proteins that underwent at least a two-fold induction upon TSA treatment are shown. Error bars represent the standard error of the mean for three biological replicates.

ribosomal protein = test: Acetyl-lysine western blot of ribopellets (ribosomal protein acetylation); conditions: SKBR3 cells; for ribosomal protein acetylation, including the band that co-migrates with RPL24: western blot of ribopellets (FIG. 4c,d)
Procedure: (§3) Previous studies have shown that pan-inhibitors of class I and II histone deacetylases, like TSA, can rapidly destabilize a number of oncogenic transcripts including HER2 in a cycloheximide-dependent manner (FIG. 9). […] Thus, SKBR3 cells were treated with TSA to evaluate polysome protein acetylation and determine if, similar to RPL24 depletion, histone deacetylase inhibition can affect ribosome assembly dynamics. To detect early (2 h) ribosome or polysome acetylation following histone deacetylase inhibition treatment (1 μM TSA), SKBR3 polysomes were isolated using a discontinuous sucrose gradient as previously described. […] Mass spectrometry studies indicate that 15 ribosomal proteins, 11 large subunit proteins (RPL24 included) and 4 small subunit proteins, underwent at least a two-fold induction in acetylation following 2 h or 6 h TSA treatment (1 μM) (FIG. 4b, FIG. 10a-q).
as §1, §2
Cells, plated at […] confluency, are treated as indicated. After treatment, cells are treated with 50 μg/ml cycloheximide for 15 minutes. Cells are lysed with a buffer containing 10 mM HEPES, 10 mM KCl, 75 mM NaCl, 10 mM MgCl2, 0.35% NP40, pH 7.9 supplemented with Complete EDTA-free protease inhibitor tablets, PhosSTOP phosphatase inhibitor tablets (Roche) per manufacturer's instructions, 50 μg/ml cycloheximide, SUPERase RNase inhibitors (Life Technologies) per manufacturer's instructions, 15 μM TSA, and 5 mM nicotinimide to inhibit histone deacetylases. Supernatants are collected as cytoplasmic preparations. Where indicated, pellets containing nuclei are resuspended in RIPA buffer (described above). The suspension is spun at 13,000 rpm for 5 min and supernatants are collected as nuclear preparations.
Ribosomes are subsequently isolated from cytoplasmic preparations as described previously. Briefly, lysates are layered on top of a 12% and 33% discontinuous sucrose gradient and spun at 38,000 rpm for 2 h. The resulting polysome pellet is then resuspended, stripped of RNA with acetic acid, and then pelleted with acetone. The pellet is then resuspended in 8 M urea, 2% CHAPS, and 25 mM dithiothreitol (DTT).
FIG. 4: Ribosomal protein acetylation is induced by histone deacetylase inhibition. (a-c) SKBR3 cells were treated with the indicated drugs for the indicated period of time. (d) SKBR3 cells were transfected with the indicated siRNAs and allowed to incubate for 72 hours. (a, c, d). The indicated western blots were performed in ribopellets, total cytoplasmic lysates, or nuclear extracts. […]

histone H2B = test: Western blot for histone H2B acetylation in SKBR3 cells; conditions: western blot (FIG. 4c)
Excerpt: as §1
Cells are lysed in RIPA buffer (10 mM Tris-HCL (pH 8.0), 1 mM EDTA, 0.5 mM EGTA, 1% triton X-100, 0.1% sodium deoxycholate, 0.1% SDS, 140 mM NaCl, 20 mM NaF, Complete EDTA-free protease inhibitor tablets (Roche Diagnostics Corp., Basel, Switzerland) and the phosphatase inhibitor cocktail PhosSTOP (Roche)), the latter two as indicated by the manufacturer's protocol. Equal amounts of protein are diluted in 2× sample buffer. Immunoblots on PVDF (Polyvinyldene Fluoride) membranes are blocked with nonfat milk in tris-buffered saline with 0.05% tween-20 (TBST). […]

HER2 mRNA = test: Northern blot of HER2 transcript levels; conditions: SKBR3 cells, cycloheximide 50 μg/ml, 6 h with TSA 1 μM
Procedure: as §3
Cells are harvested and RNA is extracted using Trizol (Life Technologies) per manufacturer's protocol. Northern blots are performed as previously described. Briefly, RNA is then electrophoresed into 1% agarose-formaldehyde gels and transferred onto PVDF membranes. Membranes are then hybridized with ^32P-labelled cDNA probes for HER2 or GAPDH, washed, and visualized by autoradiography.
SKBR3 cells were treated with TSA (1 μM, 6 h) and/or cycloheximide (CX, 50 μg/ml, 6 h) or with the respective vehicle controls. […]

Row | SMILES | tubulin acetylation (tubulin) | ribosomal protein acetylation, including the band that co-migrates with RPL24 (ribosomal protein) | histone H2B acetylation (histone H2B) | ribosomal protein acetylation (ribosomal protein; even at a dose of 20 μM (FIG. 4c)) | effect on TSA-induced HER2 mRNA decay (HER2 mRNA)
1 | O=C(NO)c1cnc(NC2(c3cccc(F)c3)CCCCC2)nc1 [Compound 101] | induce | induce |  |  | 
2 | Nc1ccccc1NC(=O)c1ccc(CNC(=O)OCc2cccnc2)cc1 [Entinostat] | without acetylating tubulin |  | induces | does not alter | 
3 | O=C(CCCCCCC(=O)Nc1ccc([C@H]2O[C@@H](CSc3nc(-c4ccccc4)c(-c4ccccc4)o3)C[C@@H](c3ccc(CO)cc3)O2)cc1)NO [Tubacin] | induce | induce |  |  | 
4 | C[C@@H]1C[C@@H]([C@H](O)CC2CC(=O)NC(=O)C2)C(=O)[C@@H](C)C1 [cycloheximide] |  |  |  |  | abrogated
